From ChEMBL document CHEMBL5506017, “Brain-Permeable Immunoproteasome-Targeting Macrocyclic Peptide Epoxyketones for Alzheimer's Disease” (J Med Chem, 2024)
Active and inactive are the calls of the source. No cut-off for these calls is given here.

What was measured:
[1] = target: T1, Proteasome subunit beta type-9 (Homo sapiens, UniProt P28065); experiment: Inhibition of human LMP2 using Ac-PAL-AMC as substrate incubated for 1 hr by fluorescence based SpectraMax M5e plate reader
T1 sequence (P28065 whole entry): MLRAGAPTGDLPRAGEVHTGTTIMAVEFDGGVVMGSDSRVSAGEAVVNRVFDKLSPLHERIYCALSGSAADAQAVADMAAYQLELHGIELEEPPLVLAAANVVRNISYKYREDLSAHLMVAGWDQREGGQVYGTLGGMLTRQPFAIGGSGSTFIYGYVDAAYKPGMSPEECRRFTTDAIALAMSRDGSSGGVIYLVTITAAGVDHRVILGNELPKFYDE

[2] = Metabolic stability in human liver microsomes assessed as half life at 2 uM measured upto 60 mins by LC-MS/MS analysis; type: ADME, Microsome; settings: 1 h
[3] = Metabolic stability in human liver microsomes assessed as parent compound remaining at 2 uM measured at 60 mins by LC-MS/MS analysis; type: ADME, Microsome; settings: 1 h
[4] = Apparent permeability of the compound across basal to apical side in human Caco-2 cells expressing Pgp/BCRP at 10 uM incubated for 120 mins by LC-MS/MS analysis; type: ADME, cell-based; settings: caco-2, 2 h
[5] = Apparent permeability of the compound across apical to basolateral side in human Caco-2 cells expressing Pgp/BCRP at 10 uM incubated for 120 mins by LC-MS/MS analysis; type: ADME, cell-based; settings: caco-2, 2 h
[6] = Efflux ratio of apparent permeability across basolateral to apical side over apical to basolateral side in human Caco-2 cells expressing Pgp/BCRP at 10 uM incubated for 120 mins by LC-MS/MS analysis; type: ADME, cell-based; settings: caco-2, 2 h
[7] = Cytotoxicity against human HMC3 cells assessed as reduction in cell viability incubated for 96 hrs by CellTiter 96 Aqueous One Solution Cell Proliferation Assay; type: toxicity, cell-based
[8] = Cytotoxicity against human ARPE-19 cells assessed as reduction in cell viability incubated for 96 hrs by CellTiter 96 Aqueous One Solution Cell Proliferation Assay; type: toxicity, cell-based
HMC3 = experiment: Cytotoxicity against human HMC3 cells assessed as reduction in cell viability at 30 to 100 uM incubated for 96 hrs by CellTiter 96 Aqueous One Solution Cell Proliferation Assay; type: toxicity, cell-based; settings: hmc3, 96 h, dose 30-100 µM
ARPE-19 = experiment: Cytotoxicity against human ARPE-19 cells assessed as reduction in cell viability at 30 to 100 uM incubated for 96 hrs by CellTiter 96 Aqueous One Solution Cell Proliferation Assay; type: toxicity, cell-based; settings: arpe-19, 96 h, dose 30-100 µM
[9] = Mutagenicity in Salmonella typhimurium TA98 at 0.01 to 100 uM incubated for 90 mins in absence of liver S9 fraction by AMES test; type: toxicity; settings: salmonella enterica subsp. enterica serovar typhimurium, s9, 1.5 h, dose 0.01-100 µM
[10] = Mutagenicity in Salmonella typhimurium TA98 at 0.01 to 100 uM incubated for 90 mins in presence of liver S9 fraction by AMES test; type: toxicity, subcellular; settings: salmonella enterica subsp. enterica serovar typhimurium, s9, 1.5 h, dose 0.01-100 µM
[11] = Mutagenicity in Salmonella typhimurium TA100 at 0.01 to 100 uM incubated for 90 mins in absence of liver S9 fraction by AMES test; type: toxicity; settings: salmonella enterica subsp. enterica serovar typhimurium, s9, 1.5 h, dose 0.01-100 µM
[12] = Mutagenicity in Salmonella typhimurium TA100 at 0.01 to 100 uM incubated for 90 mins in presence of liver S9 fraction by AMES test; type: toxicity, subcellular; settings: salmonella enterica subsp. enterica serovar typhimurium, s9, 1.5 h, dose 0.01-100 µM
[13] = target: T2, Proteasome subunit beta type-9 (Mus musculus) (UniProt P28076); experiment: Covalent inhibition of LMP2 in mouse BV-2 cells assessed as band shift at 0.3 to 3 uM incubated for 24 hrs by Western blot analysis; type: cell-based; settings: dose 0.3-3 µM
T2 sequence (whole entry): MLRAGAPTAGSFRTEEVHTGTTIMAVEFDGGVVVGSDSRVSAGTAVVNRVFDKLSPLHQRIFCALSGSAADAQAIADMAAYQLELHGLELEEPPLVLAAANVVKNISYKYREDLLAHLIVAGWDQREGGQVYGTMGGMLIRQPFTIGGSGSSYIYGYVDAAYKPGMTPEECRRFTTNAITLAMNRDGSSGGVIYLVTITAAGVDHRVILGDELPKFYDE

[14] = Mutagenicity in Salmonella typhimurium TA98 at 1 mg/ml incubated for 90 mins in absence of liver S9 fraction by AMES test; type: toxicity; settings: salmonella enterica subsp. enterica serovar typhimurium, s9, 1.5 h

Which IC50 [1] does the source give for `C[C@]1(C(=O)[C@H](CC2=CCCC2)NC(=O)[C@@H]2COCCCCCC(=O)N3C[C@H](F)C[C@H]3C(=O)N2)CO1` here?
Its IC50 is 137 nM.

What about the t1/2 [2] of the same molecule?
Its t1/2 is 8.29 min.

And the Stability [3]?
The Stability was 0.3%.

And the Papp [4]?
Its Papp is 9.06 10^-6 cm/s.

What about the Papp [5] of the same molecule?
The Papp was 8.03 10^-6 cm/s.

And the Ratio [6]?
Its Ratio is 1.13.

And the IC50 at 96 h [7]?
The IC50 at 96 h was over 100000 nM.

And the IC50 at 96 h [8]?
Its IC50 at 96 h is over 100000 nM.

What about the Activity (HMC3) of the same molecule?
Its Activity is “Non-Toxic”.

What about the Activity (ARPE-19) of the same molecule?
Its Activity is “Non-Toxic”.

What about the Activity [9] of the same molecule?
The Activity was “Non-Toxic”.

And the Activity [10]?
The Activity was “Non-Toxic”.

What about the Activity [11] of the same molecule?
The Activity was “Non-Toxic”.

And the Activity [12]?
Its Activity is “Non-Toxic”.

What about the inhibition [13] of the same molecule?
The inhibition was “Active”.

For `CC(C)C[C@H](NC(=O)[C@@H]1COCCCCCC(=O)N2CC(F)(F)C[C@H]2C(=O)N1)C(=O)[C@@]1(C)CO1`, which t1/2 [2] is on record?
The t1/2 was 21.6 min.

And the Stability [3]?
The Stability was 13.5%.

What about the Papp [4] of the same molecule?
The Papp was 14.4 10^-6 cm/s.

What about the Papp [5] of the same molecule?
Its Papp is 29.1 10^-6 cm/s.

What about the Ratio [6] of the same molecule?
Its Ratio is 0.52.

What about the IC50 at 96 h [7] of the same molecule?
Its IC50 at 96 h is over 100000 nM.

What about the IC50 at 96 h [8] of the same molecule?
The IC50 at 96 h was over 100000 nM.

And the Activity (HMC3)?
Its Activity is “Non-Toxic”.

What about the Activity (ARPE-19) of the same molecule?
The Activity was “Non-Toxic”.

What about the Activity [14] of the same molecule?
The Activity was “Toxic”.

For `C[C@]1(C(=O)[C@H](CC2=CCCC2)NC(=O)[C@@H]2Cc3ccc(cc3)OCCCCCCCC(=O)N3CCC[C@H]3C(=O)N2)CO1`, which IC50 [1] is on record?
The IC50 was 220 nM.

What about the Stability [3] of the same molecule?
The Stability was “Unstable”.

And the Papp [4]?
The Papp was 1.05 10^-6 cm/s.

What about the Papp [5] of the same molecule?
The Papp was 2.44 10^-6 cm/s.

What about the Ratio [6] of the same molecule?
Its Ratio is 0.43.

Which results are given for `CC(C)C[C@H](NC(=O)[C@@H]1COCCCCCC(=O)NCC(=O)N2CCC[C@H]2C(=O)N1)C(=O)[C@@]1(C)CO1`?
t1/2 [2]: 55.3 min; Stability [3]: 46.4%; Papp [4]: 7.25 10^-6 cm/s; Papp [5]: 0.454 10^-6 cm/s; Ratio [6]: 21.7

For `C[C@]1(C(=O)[C@H](Cc2ccccc2)NC(=O)[C@H](CO)NC(=O)c2cccc(=O)[nH]2)CO1`, which IC50 at 96 h [7] is on record?
The IC50 at 96 h was 24100 nM.

What about the IC50 at 96 h [8] of the same molecule?
The IC50 at 96 h was over 30000 nM.

For `CC(C)C[C@H](NC(=O)[C@@H]1COCCCCCC(=O)N2CC[C@H]2C(=O)N1)C(=O)[C@@]1(C)CO1`, which t1/2 [2] is on record?
Its t1/2 is 43 min.

What about the Stability [3] of the same molecule?
Its Stability is 38.8%.

What about the Papp [4] of the same molecule?
The Papp was 14.8 10^-6 cm/s.

And the Papp [5]?
The Papp was 6.8 10^-6 cm/s.

And the Ratio [6]?
Its Ratio is 2.17.

What about the IC50 at 96 h [7] of the same molecule?
Its IC50 at 96 h is over 30000 nM.

What about the IC50 at 96 h [8] of the same molecule?
Its IC50 at 96 h is over 100000 nM.

And the Activity (HMC3)?
Its Activity is “Non-Toxic”.

And the Activity (ARPE-19)?
The Activity was “Non-Toxic”.

What about the Activity [9] of the same molecule?
The Activity was “Non-Toxic”.

And the Activity [10]?
The Activity was “Non-Toxic”.

And the Activity [11]?
Its Activity is “Non-Toxic”.

What about the Activity [12] of the same molecule?
Its Activity is “Non-Toxic”.

For `CC(C)C[C@H](NC(=O)[C@H](CCc1ccccc1)NC(=O)CN1CCOCC1)C(=O)N[C@@H](Cc1ccccc1)C(=O)N[C@@H](CC(C)C)C(=O)[C@@]1(C)CO1` [CARFILZOMIB], which t1/2 [2] is on record?
Its t1/2 is 1.34 min.

And the Stability [3]?
Its Stability is “Unstable”.

What about the Papp [4] of the same molecule?
Its Papp is 5.16 10^-6 cm/s.

What about the Papp [5] of the same molecule?
The Papp was 0.558 10^-6 cm/s.

What about the Ratio [6] of the same molecule?
The Ratio was 9.33.

And the IC50 at 96 h [7]?
The IC50 at 96 h was 16 nM.

What about the IC50 at 96 h [8] of the same molecule?
Its IC50 at 96 h is 58 nM.

Which results are given for `C[C@]1(C(=O)[C@H](Cc2ccccc2)NC(=O)[C@@H]2Cc3ccc(cc3)OCCCCCCCC(=O)N3CCC[C@H]3C(=O)N2)CO1`?
t1/2 [2]: 1.35 min; Stability [3]: Unstable; Papp [4]: 3.33 10^-6 cm/s; Papp [5]: 5.91 10^-6 cm/s; Ratio [6]: 0.56

Which results are given for `CC(C)C[C@H](NC(=O)[C@@H]1COCCCCCCC(=O)NCC(=O)N2CCC[C@H]2C(=O)N1)C(=O)[C@@]1(C)CO1`?
t1/2 [2]: 24.1 min; Stability [3]: 17%; Papp [4]: 8.64 10^-6 cm/s; Papp [5]: 0.39 10^-6 cm/s; Ratio [6]: 22.2

What does the source list for `C[C@]1(C(=O)[C@H](Cc2ccccc2)NC(=O)[C@@H]2COCCCCCC(=O)N3C[C@H](F)C[C@H]3C(=O)N2)CO1`?
IC50 [1]: 127 nM; t1/2 [2]: 13.4 min; Stability [3]: 4.57%; Papp [4]: 12.6 10^-6 cm/s; Papp [5]: 7.52 10^-6 cm/s; Ratio [6]: 1.68
